Laboratory results from patent US12447153B2, “HER2 mutation inhibitors” (Array BioPharma Inc., priority 2021, dated 2025).

How the values were obtained:
[1] = molecular target: ErbB2 with Exon 20 YVMA insertion (HER2-YVMA) (Homo sapiens (Human), UniProt P04626, INS775YVMA); experiment: Cellular Phosphorylation Assay, Assay 4 (constitutive ErbB2 phosphorylation, NIH 3T3 cells); type: cell-based; settings: ErbB2 YVMA phosphorylation
EGFR wild type (EGFR WT) = EGFR wild type (EGFR WT) (Homo sapiens (Human), UniProt P00533); experiment: Cellular Phosphorylation Assay, Assay 5 (EGF-stimulated EGFR phosphorylation, NIH 3T3 cells); type: cell-based; settings: EGF-stimulated EGFR WT phosphorylation
EGFR = EGFR (Homo sapiens (Human), UniProt P00533); experiment: ErbB Enzyme Assay (HTRF KinEASE-TK), Assay 3; type: biochemical; settings: EGFR enzyme
ErbB2 WT = ErbB2 WT (Homo sapiens (Human), UniProt P04626); experiment: ErbB Enzyme Assay (HTRF KinEASE-TK), Assay 2; type: biochemical; settings: ErbB2 WT enzyme
Sequence of ErbB2 WT (P04626 23-1255): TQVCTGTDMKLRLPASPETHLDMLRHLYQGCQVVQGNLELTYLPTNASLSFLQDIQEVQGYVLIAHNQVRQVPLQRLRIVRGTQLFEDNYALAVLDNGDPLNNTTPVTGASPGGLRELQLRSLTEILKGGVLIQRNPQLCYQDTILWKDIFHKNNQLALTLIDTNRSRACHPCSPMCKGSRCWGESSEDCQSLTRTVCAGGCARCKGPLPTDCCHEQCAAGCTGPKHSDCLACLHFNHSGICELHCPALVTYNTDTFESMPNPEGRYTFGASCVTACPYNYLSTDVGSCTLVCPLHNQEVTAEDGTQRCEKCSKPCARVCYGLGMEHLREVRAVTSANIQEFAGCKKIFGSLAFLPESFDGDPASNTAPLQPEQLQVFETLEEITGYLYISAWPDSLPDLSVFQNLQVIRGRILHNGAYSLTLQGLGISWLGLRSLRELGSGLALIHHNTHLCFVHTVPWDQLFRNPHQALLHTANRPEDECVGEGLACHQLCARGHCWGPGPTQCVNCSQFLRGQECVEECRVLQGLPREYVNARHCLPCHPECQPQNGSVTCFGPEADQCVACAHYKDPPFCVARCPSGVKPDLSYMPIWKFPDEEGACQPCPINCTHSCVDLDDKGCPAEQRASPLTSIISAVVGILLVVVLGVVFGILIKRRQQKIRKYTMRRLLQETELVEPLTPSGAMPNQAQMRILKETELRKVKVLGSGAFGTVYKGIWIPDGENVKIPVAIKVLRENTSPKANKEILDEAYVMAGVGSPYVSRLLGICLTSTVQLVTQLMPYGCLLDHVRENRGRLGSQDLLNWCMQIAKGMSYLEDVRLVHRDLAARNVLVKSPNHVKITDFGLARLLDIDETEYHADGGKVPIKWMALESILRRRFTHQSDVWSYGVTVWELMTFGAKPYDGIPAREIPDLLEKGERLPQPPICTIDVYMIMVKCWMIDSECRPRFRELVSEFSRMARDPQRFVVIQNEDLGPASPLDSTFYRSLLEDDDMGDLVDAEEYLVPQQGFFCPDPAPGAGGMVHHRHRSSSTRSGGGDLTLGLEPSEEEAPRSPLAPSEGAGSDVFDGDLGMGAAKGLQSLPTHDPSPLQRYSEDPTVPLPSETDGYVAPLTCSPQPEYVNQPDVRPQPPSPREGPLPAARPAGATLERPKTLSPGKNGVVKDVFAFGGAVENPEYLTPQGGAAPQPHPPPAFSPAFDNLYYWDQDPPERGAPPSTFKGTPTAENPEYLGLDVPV

Sequence of ErbB2 with Exon 20 YVMA insertion (HER2-YVMA) (P04626 other isoform, or with tags, fused parts or gaps ins YVMA behind 775): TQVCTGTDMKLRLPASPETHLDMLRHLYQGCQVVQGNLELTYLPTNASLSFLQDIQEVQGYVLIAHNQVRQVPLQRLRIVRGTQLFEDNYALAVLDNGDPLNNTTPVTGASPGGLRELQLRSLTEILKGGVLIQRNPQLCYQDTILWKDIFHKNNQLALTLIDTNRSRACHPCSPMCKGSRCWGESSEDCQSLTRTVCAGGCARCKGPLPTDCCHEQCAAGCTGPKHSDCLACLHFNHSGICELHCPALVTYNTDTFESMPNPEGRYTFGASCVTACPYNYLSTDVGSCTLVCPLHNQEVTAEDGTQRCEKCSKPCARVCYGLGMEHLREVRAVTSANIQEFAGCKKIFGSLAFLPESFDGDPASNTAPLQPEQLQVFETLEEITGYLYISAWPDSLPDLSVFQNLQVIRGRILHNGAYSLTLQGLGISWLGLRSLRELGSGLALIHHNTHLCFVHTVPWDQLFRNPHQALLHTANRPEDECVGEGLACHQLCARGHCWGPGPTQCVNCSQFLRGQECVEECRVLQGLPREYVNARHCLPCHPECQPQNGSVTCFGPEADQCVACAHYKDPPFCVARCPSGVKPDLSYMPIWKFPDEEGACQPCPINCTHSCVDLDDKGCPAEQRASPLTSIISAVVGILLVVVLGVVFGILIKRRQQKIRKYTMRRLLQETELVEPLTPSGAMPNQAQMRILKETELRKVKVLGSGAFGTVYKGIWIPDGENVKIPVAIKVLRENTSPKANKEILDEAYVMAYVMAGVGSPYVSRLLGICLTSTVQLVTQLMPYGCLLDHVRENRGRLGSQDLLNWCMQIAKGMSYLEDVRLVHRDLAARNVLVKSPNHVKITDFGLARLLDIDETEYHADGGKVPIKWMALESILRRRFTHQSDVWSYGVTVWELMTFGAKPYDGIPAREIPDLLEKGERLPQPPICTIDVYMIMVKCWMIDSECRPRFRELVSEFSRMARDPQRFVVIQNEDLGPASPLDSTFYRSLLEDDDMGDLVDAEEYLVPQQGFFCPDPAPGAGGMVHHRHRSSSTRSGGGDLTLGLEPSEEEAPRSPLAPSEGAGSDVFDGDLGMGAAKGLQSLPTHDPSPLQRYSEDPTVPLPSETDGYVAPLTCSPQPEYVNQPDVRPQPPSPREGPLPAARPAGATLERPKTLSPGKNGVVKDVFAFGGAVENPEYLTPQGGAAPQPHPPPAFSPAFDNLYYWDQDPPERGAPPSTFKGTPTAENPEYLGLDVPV
Sequence of EGFR wild type (EGFR WT) (P00533 25-1210): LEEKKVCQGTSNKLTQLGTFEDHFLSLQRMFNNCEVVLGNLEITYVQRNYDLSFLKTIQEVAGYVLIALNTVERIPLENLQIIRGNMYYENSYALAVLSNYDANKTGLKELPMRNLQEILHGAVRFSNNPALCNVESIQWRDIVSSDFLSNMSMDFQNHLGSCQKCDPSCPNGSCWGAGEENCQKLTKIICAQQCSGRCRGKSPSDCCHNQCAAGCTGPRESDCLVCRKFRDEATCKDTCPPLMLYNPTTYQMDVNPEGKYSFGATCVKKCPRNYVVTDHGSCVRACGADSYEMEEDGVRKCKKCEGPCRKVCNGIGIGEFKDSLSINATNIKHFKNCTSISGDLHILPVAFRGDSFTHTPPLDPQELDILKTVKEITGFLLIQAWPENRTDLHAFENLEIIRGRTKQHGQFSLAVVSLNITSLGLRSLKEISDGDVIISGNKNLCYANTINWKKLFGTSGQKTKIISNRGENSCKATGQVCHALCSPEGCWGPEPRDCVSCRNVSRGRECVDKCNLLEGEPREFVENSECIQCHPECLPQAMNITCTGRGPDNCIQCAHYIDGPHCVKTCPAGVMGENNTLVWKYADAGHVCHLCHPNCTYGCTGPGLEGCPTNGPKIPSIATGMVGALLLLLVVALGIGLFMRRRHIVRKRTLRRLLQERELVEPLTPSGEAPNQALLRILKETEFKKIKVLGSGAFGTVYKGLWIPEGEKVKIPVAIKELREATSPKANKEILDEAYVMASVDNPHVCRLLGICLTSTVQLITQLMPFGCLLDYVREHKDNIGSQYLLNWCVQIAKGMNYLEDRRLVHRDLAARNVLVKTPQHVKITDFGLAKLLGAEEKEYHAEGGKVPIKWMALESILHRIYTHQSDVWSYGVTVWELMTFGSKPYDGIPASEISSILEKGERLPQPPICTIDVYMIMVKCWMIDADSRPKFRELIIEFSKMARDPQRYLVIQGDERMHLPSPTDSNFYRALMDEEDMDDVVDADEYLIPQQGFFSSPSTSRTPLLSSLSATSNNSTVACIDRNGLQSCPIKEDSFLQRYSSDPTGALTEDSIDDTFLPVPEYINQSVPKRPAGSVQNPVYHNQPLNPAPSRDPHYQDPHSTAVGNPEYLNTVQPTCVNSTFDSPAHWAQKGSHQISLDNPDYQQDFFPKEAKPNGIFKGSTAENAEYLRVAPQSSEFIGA
Sequence of EGFR (P00533 25-1210): as above

SMILES	IC50 [1]	IC50 (EGFR wild type (EGFR WT))	IC50 (EGFR)	IC50 (ErbB2 WT)
C=CC(=O)N1CCC(Oc2ccc3ncnc(Nc4ccc(Oc5cnc6cn(C)nc6c5)c(C)c4)c3n2)CC1 [Example 14, 1-(4-((4-((3-methyl-4-((2-methyl-2H-pyrazolo[4,3-b]pyridin-6-yl)oxy)phenyl)amino)pyrido[3,2-d]pyrimidin-6-yl)oxy)piperidin-1-yl)prop-2-en-1-one]	48.4 nM	≥ 5000 nM	≥ 10000 nM	432 nM
C=C(C)c1ccc2ncnc(Nc3ccc(Oc4ccc5c(c4)ncn5C)c(C)c3)c2n1 [Example 24, N-(3-methyl-4-((1-methyl-1H-benzo[d]imidazol-5-yl)oxy)phenyl)-6-(prop-1-en-2-yl)pyrido[3,2-d]pyrimidin-4-amine]	70.6 nM	≥ 5000 nM	≥ 10000 nM	194 nM
Cc1c(Oc2ccn3ncnc3c2)ccc(Nc2ncnc3ccc(N4C[C@@H]5CCN(C(=O)C67CC6C7)[C@@H]5C4)nc23)c1F (stereo partly drawn) [Example 27, ((3aS,6aS)-5-(4-((4-([1,2,4]triazolo[1,5-a]pyridin-7-yloxy)-2-fluoro-3-methylphenyl)amino)pyrido[3,2-d]pyrimidin-6-yl)hexahydropyrrolo[3,4-b]pyrrol-1(2H)-yl)(bicyclo[1.1.0]butan-1-yl)methanone]	381 nM	≥ 5000 nM	≥ 10000 nM	486 nM
C=CC(=O)N1CC[C@@H]2C[C@H]1CN2c1ccc2ncnc(Nc3ccc(Oc4ccc5c(c4)ncn5C)c(C)c3F)c2n1 [Example 29, 1-((1 S,5R)-6-(4-((2-fluoro-3-methyl-4-((1-methyl-1H-benzo[d]imidazol-5-yl)oxy)phenyl)amino)pyrido[3,2-d]pyrimidin-6-yl)-2,6-diazabicyclo[3.2.1]octan-2-yl)prop-2-en-1-one]	5.8 nM	118 nM	311 nM	36.5 nM
C=CC(=O)N1CCC2CN(c3nc4c(Nc5ccc(Oc6ccn7ncnc7c6)c(Cl)c5F)ncnc4cc3OC)CC21 (stereo not drawn) [Example 38, 1-(5-(4-((4-([1,2,4]triazolo[1,5-a]pyridin-7-yloxy)-3-chloro-2-fluorophenyl)amino)-7-methoxypyrido[3,2-d]pyrimidin-6-yl)hexahydropyrrolo[3,4-b]pyrrol-1(2H)-yl)prop-2-en-1-one]	22.6 nM	382 nM	153 nM	8.5 nM
C=CC(=O)N1CCC(Oc2nc3c(Nc4ccc(Oc5ccn6ncnc6c5)c(C)c4F)ncnc3cc2OC)CC1 [Example 40, 1-(4-((4-((4-([1,2,4]triazolo[1,5-a]pyridin-7-yloxy)-2-fluoro-3-methylphenyl)amino)-7-methoxypyrido[3,2-d]pyrimidin-6-yl)oxy)piperidin-1-yl)prop-2-en-1-one]	7.8 nM	111 nM	300 nM	11.3 nM
C=CC(=O)N1C2CC1CN(c1ccc3ncnc(Nc4cc(Cl)c(Oc5ccn6ncnc6c5)cc4F)c3n1)C2 [Example 44, 1-(3-(4-((4-([1,2,4]triazolo[1,5-a]pyridin-7-yloxy)-5-chloro-2-fluorophenyl)amino)pyrido[3,2-d]pyrimidin-6-yl)-3,6-diazabicyclo[3.1.1]heptan-6-yl)prop-2-en-1-one]	55.7 nM	≥ 5000 nM	≥ 10000 nM	81.5 nM
C=CC(=O)N1CCC(Oc2ccc3ncnc(Nc4ccc(Oc5cnn6c(C)cnc6c5)c(Cl)c4F)c3n2)CC1 [Example 53, 1-(4-((4-((3-chloro-2-fluoro-4-((3-methylimidazo[1,2-b]pyridazin-7-yl)oxy)phenyl)amino)pyrido[3,2-d]pyrimidin-6-yl)oxy)piperidin-1-yl)prop-2-en-1-one]	41.1 nM	1240 nM	1450 nM	99.1 nM
C=CC(=O)N1CCC(Oc2ccc3ncnc(Nc4ccc(Oc5cnn6ccnc6c5)c(Cl)c4)c3n2)CC1 [Example 54, 1-(4-((4-((3-chloro-4-(imidazo[1,2-b]pyridazin-7-yloxy)phenyl)amino)pyrido[3,2-d]pyrimidin-6-yl)oxy)piperidin-1-yl)prop-2-en-1-one]	40 nM	1470 nM	1380 nM	423 nM
C=CC(=O)N1CCC(Oc2ccc3ncnc(Nc4ccc(Oc5cnn6c(C)cnc6c5)c(C)c4F)c3n2)CC1 [Example 55, 1-(4-((4-((2-fluoro-3-methyl-4-((3-methylimidazo[1,2-b]pyridazin-7-yl)oxy)phenyl)amino)pyrido[3,2-d]pyrimidin-6-yl)oxy)piperidin-1-yl)prop-2-en-1-one]	50.8 nM	930 nM	≥ 10000 nM	2040 nM
C=CC(=O)N1CCC(Oc2ccc3ncnc(Nc4ccc(Oc5cnn6ccnc6c5)c(C)c4F)c3n2)CC1 [Example 56, 1-(4-((4-((2-fluoro-4-(imidazo[1,2-b]pyridazin-7-yloxy)-3-methylphenyl)amino)pyrido[3,2-d]pyrimidin-6-yl)oxy)piperidin-1-yl)prop-2-en-1-one]	19.7 nM	374 nM	1440 nM	233 nM
C=CC(=O)N1CCC(Sc2ccc3ncnc(Nc4ccc(Oc5ccn6ncnc6c5)c(C)c4F)c3n2)CC1 [Example 60, 1-(4-((4-((4-([1,2,4]triazolo[1,5-a]pyridin-7-yloxy)-2-fluoro-3-methylphenyl)amino)pyrido[3,2-d]pyrimidin-6-yl)thio)piperidin-1-yl)prop-2-en-1-one]	49.4 nM	1210 nM	≥ 10000 nM	54.3 nM
C=CC(=O)N1CC(Sc2ccc3ncnc(Nc4ccc(Oc5ccc6c(c5)ncn6C)c(C)c4F)c3n2)C1 [Example 61, 1-(3-((4-((2-fluoro-3-methyl-4-((1-methyl-1H-benzo[d]imidazol-5-yl)oxy)phenyl)amino)pyrido[3,2-d]pyrimidin-6-yl)thio)azetidin-1-yl)prop-2-en-1-one]	34.4 nM	976 nM	283 nM	16.3 nM

Next, values leading:

IC50 [1]	IC50 (EGFR wild type (EGFR WT))	IC50 (EGFR)	IC50 (ErbB2 WT)	SMILES
28.1 nM	639 nM	333 nM	15.3 nM	C=CC(=O)N1CCC(Sc2ccc3ncnc(Nc4ccc(Oc5ccn6ncnc6c5)c(Cl)c4F)c3n2)CC1 [Example 62, 1-(4-((4-((4-([1,2,4]triazolo[1,5-a]pyridin-7-yloxy)-3-chloro-2-fluorophenyl)amino)pyrido[3,2-d]pyrimidin-6-yl)thio)piperidin-1-yl)prop-2-en-1-one]
6.1 nM	153 nM	84.5 nM	6.8 nM	C=CC(=O)N1CC[C@@H]2C[C@H]1CN2c1ccc2ncnc(Nc3cc(C)c(Oc4ccc5c(c4)ncn5C)cc3F)c2n1 [Example 66, 1-((1S,5R)-6-(4-((2-fluoro-5-methyl-4-((1-methyl-1H-benzo[d]imidazol-5-yl)oxy)phenyl)amino)pyrido[3,2-d]pyrimidin-6-yl)-2,6-diazabicyclo[3.2.1]octan-2-yl)prop-2-en-1-one]
35.8 nM	≥ 5000 nM	≥ 10000 nM	422 nM	C=CC(=O)N1CC[C@H]2C[C@@H]1CN2c1ccc2ncnc(Nc3ccc(Oc4ccc5c(c4)ncn5C)c(C)c3F)c2n1 [Example 67, 1-((1R,5S)-6-(4-((2-fluoro-3-methyl-4-((1-methyl-1H-benzo[d]imidazol-5-yl)oxy)phenyl)amino)pyrido[3,2-d]pyrimidin-6-yl)-2,6-diazabicyclo[3.2.1]octan-2-yl)prop-2-en-1-one]
73.8 nM	≥ 5000 nM	≥ 10000 nM	664 nM	C=CC(=O)N1CCN(c2ccc3ncnc(Nc4ccc(Oc5ccc6c(c5)ncn6C)c(C)c4F)c3n2)CCC1(C)C [Example 68, 1-(4-(4-((2-fluoro-3-methyl-4-((1-methyl-1H-benzo[d]imidazol-5-yl)oxy)phenyl)amino)pyrido[3,2-d]pyrimidin-6-yl)-7,7-dimethyl-1,4-diazepan-1-yl)prop-2-en-1-one]
17.1 nM	≥ 5000 nM	≥ 10000 nM	33.4 nM	C=CC(=O)N1CCN(c2ccc3ncnc(Nc4cc(Cl)c(Oc5ccc6c(c5)ncn6C)cc4F)c3n2)CC1(C)C [Example 76, 1-(4-(4-((5-chloro-2-fluoro-4-((1-methyl-1H-benzo[d]imidazol-5-yl)oxy)phenyl)amino)pyrido[3,2-d]pyrimidin-6-yl)-2,2-dimethylpiperazin-1-yl)prop-2-en-1-one]
145 nM	≥ 5000 nM	≥ 10000 nM	448 nM	C=CC(=O)N1C[C@H]2C[C@@H]1CN2c1ccc2ncnc(Nc3cc(C)c(Oc4ccn5ncnc5c4)cc3F)c2n1 [Example 78, 1-((1R,4R)-5-(4-((4-([1,2,4]triazolo[1,5-a]pyridin-7-yloxy)-2-fluoro-5-methylphenyl)amino)pyrido[3,2-d]pyrimidin-6-yl)-2,5-diazabicyclo[2.2.1]heptan-2-yl)prop-2-en-1-one]
42.6 nM	≥ 5000 nM	≥ 10000 nM	104 nM	C=CC(=O)N1CCN(c2ccc3ncnc(Nc4cc(C)c(Oc5ccn6ncnc6c5)cc4F)c3n2)CC1 [Example 79, 1-(4-(4-((4-([1,2,4]triazolo[1,5-a]pyridin-7-yloxy)-2-fluoro-5-methylphenyl)amino)pyrido[3,2-d]pyrimidin-6-yl)piperazin-1-yl)prop-2-en-1-one]
25 nM	446 nM	205 nM	3.1 nM	C=CC(=O)N1CCN(c2ccc3ncnc(Nc4ccc(Oc5ccn6ncnc6c5)c(Cl)c4F)c3n2)C[C@H]1C(F)(F)F [Example 85, (S)-1-(4-(4-((4-([1,2,4]triazolo[1,5-a]pyridin-7-yloxy)-3-chloro-2-fluorophenyl)amino)pyrido[3,2-d]pyrimidin-6-yl)-2-(trifluoromethyl)piperazin-1-yl)prop-2-en-1-one]
